What was measured:
[1] = tested on: HER2 overexpressing cells (SK-BR-3, BT-474, N87); assay: In vitro drug combinations with PB4188 (checkerboard titrations, isobolograms); type: cell-based; details: HRG in matrigel or HRG stress concentrations
Experimental: Moreover, combination with chemotherapeutic drugs and cyclin inhibitors were tested. Combinations were tested on HER2 overexpressing cells growing in the presence of HRG in matrigel (SK-BR-3 and BT-474) or in the presence of HRG stress concentrations (N87 and SK-BR-3 as described in proliferation assays). The inhibitory effect of drug combinations was tested by imaging or by measuring proliferation using Alamar Blue as described herein before. […] The extent of growth inhibition obtained with each combination was calculated. […] The inhibition values of the combination experiments were used by CHALICE™ Analyzer software to generate the isobolograms.

[2] = tested on: intracranial ST1360B PDX tumors
Text: Mice carrying ST1360B tumors were supplemented with estrogen following tumor implantation. The tumor was washed with PBS and trimmed for residual connective tissues at the surface. The tumor was cut into small pieces and digested with Accutase and Collagenase IV to yield a suspension of single cells. The digestion was stopped by addition of media containing fetal bovine serum and the cell suspension was filtered through a 100 µm filter, washed in PBS and resuspended in PBS. The viability of the tumor cells was checked by trypan blue staining and the final concentration was 18 million viable cells/mL. The viability of total cells was greater than 80%. There was no differentiation between stromal or tumor cells and the solutions do also contain some cell debris. […] The cells were kept on ice until inoculation.
Mice were anaesthetized by hypnorm/midazolam (1 ml/100 g body weight) and placed in a stereotactic frame for fixation of the head. A longitudinal incision was made in the scalp exposing the calvarium. A hole was drilled in the skull 1.5 mm right of the sutura saggitalis and 0.5 mm posterior to the bregma using a microdrill. Ten µl of the cell suspension (180.000 cells) was injected at a depth of 2-2.5 mm at a rate of 60 nl/sec using a 100 µl syringe with a 25-gauge needle placed in a micro infusion pump. The needle was left for 3 minutes before being withdrawn. Bupivacaine (0.2 mg/100 g bodyweight) and Lidocaine (1 mg/100 g body weight) were administrated in the incision site for local anesthetic and the skin was closed with a suture. The mice were ear punched for identification and returned to their cages where they were monitored until fully recovered from the anesthesia. The mice were monitored at least twice per week (weight and clinical signs) after tumor inoculation and more often if clinical signs or weight loss was present.
Tumor development was monitored bi-weekly by T2-weighted MR imaging (axial and coronal planes). The first imaging session was 19 days after tumor inoculation. The animals were anesthetized during the MR imaging sessions (sevoflurane, 2-4% in ambient air supplemented with 100% O2 at approximately 4:1 ratio). Enrolment into study was based on two pathological MR scans showing tumor growth and a tumor volume of about 10-20 mm^3. Mice that meet the enrolment criteria were randomized into one of four groups. The first 32 mice that meet the inclusion criteria were enrolled into the study. Mice were randomized so all groups presented with the same mean tumor volume at treatment initiation.
Drugs were diluted in sterile saline before each dosing. Mice were placed under a heating lamp for approximately 5-10 minutes before injection of the test compound to make the procedure as quick and easy as possible. The mouse was placed on a tail restrain box and the test compound was dosed in the lateral tail vein as a single intravenous (i.v.) bolus dose. The dosing volume was 5.0mL/kg.
Tumor growth were monitored bi-weekly by T2-weighted MR imaging (axial and coronal planes) for the first two weeks after therapy initiation and weekly until 6 weeks after therapy. The animals were anesthetized during the MR imaging sessions (sevoflurane, 2-4% in ambient air supplemented with 100% O2 at approximately 4:1 ratio).
The brain with tumor was resected and preserved in 4% formaldehyde for 24-48 hours and transferred to 70% ethanol. The fixative: tissue ratio was at least 20:1.
Tumor volumes were measured on the images by drawing region of interests (ROIs) on the individual slices and calculating the volume of the ROIs.

## Cc1nc(NC(=O)N2CCC[C@H]2C(N)=O)sc1-c1ccnc(C(C)(C)C(F)(F)F)c1 [BYL719]
[1]
  Drug combination with PB4188 (isobologram analysis): synergistic

## NC1(c2ccc(-c3nc4ccn5c(=O)[nH]nc5c4cc3-c3ccccc3)cc2)CCC1 [MK-2206]
[1]
  Drug combination with PB4188 (isobologram analysis): synergistic

## CO[C@H]1C[C@@H]2CC[C@@H](C)[C@@](O)(O2)C(=O)C(=O)N2CCCC[C@H]2C(=O)O[C@H]([C@H](C)C[C@@H]2CC[C@@H](OCCO)[C@H](OC)C2)CC(=O)[C@H](C)/C=C(\C)[C@@H](O)[C@@H](OC)C(=O)[C@H](C)C[C@H](C)/C=C/C=C/C=C/1C [everolimus]
[1]
  Drug combination with PB4188 (isobologram analysis): synergistic

## CS(=O)(=O)CCNCc1ccc(-c2ccc3ncnc(Nc4ccc(OCc5cccc(F)c5)c(Cl)c4)c3c2)o1 [lapatinib]
[1]
  Drug combination with PB4188 (isobologram analysis): synergistic

## CCOc1cc2ncc(C#N)c(Nc3ccc(OCc4ccccn4)c(Cl)c3)c2cc1NC(=O)/C=C/CN(C)C [neratinib]
[1]
  Drug combination with PB4188 (isobologram analysis): synergistic

## CC(=O)O[C@H]1C(=O)[C@@]2(C)[C@H]([C@H](OC(=O)c3ccccc3)[C@]3(O)C[C@H](OC(=O)[C@H](O)[C@@H](NC(=O)c4ccccc4)c4ccccc4)C(C)=C1C3(C)C)[C@]1(OC(C)=O)CO[C@@H]1C[C@@H]2O [paclitaxel]
[1]
  Drug combination with PB4188 (isobologram analysis): synergistic

## O=C(CCCCCCC(=O)Nc1ccccc1)NO [vorinostat]
[1]
  Drug combination with PB4188 (isobologram analysis): synergistic

## T-DM1
[2]; compared to vehicle treated mice
  Tumor growth by T2-weighted MRI: inhibited
[2]; compared to vehicle treated mice, p<0.05, Tukey
  mean tumor volume 10 days post therapy: significantly smaller compared to vehicle treated mice
[2]; individual mouse, scale 0-4 (0 no, 4 massive brain edema), day 3 post initiation of therapy
  Brain edema score day 3: 0
[2]; post therapy initiation, T-DM1 10 mg/kg 4x qwk i.v., MCLA-128 25 mg/kg 4x twice wk i.v., vehicle 13 days
  median survival: 19.5 days

Source: EP4810518A2, “ANTIBODY THAT BINDS ERBB-2 AND ERBB-3” (Merus B.V., priority 2017, dated 2018)
